From PMC10460880, “Cathepsin K‐Activated Probe for Fluoro‐Photoacoustic Imaging of Early Osteolytic Metastasis” (Advanced Science, 2023)

How the values were obtained:
[1] = biological target: T1, cathepsin K (CTSK) (Homo sapiens, UniProt P43235); assay: In vitro CTSK activation of probes (UV-vis, fluorescence, PA); type: biochemical
T1 sequence (P43235 115-329): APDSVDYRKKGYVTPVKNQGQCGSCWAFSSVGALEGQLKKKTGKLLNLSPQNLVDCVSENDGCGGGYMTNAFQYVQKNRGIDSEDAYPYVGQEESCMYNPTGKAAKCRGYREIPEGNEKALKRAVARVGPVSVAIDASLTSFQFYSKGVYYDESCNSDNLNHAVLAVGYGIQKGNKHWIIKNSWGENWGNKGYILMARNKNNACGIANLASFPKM
Description: radiography (DR), and fluorescence imaging were carried out by using an IVIS Spectrum imaging system (PerkinElmer). Photoacoustic (PA) imaging was obtained on a multispectral optoacoustic tomography (MSOT) scanner (iThera Medical). Computed tomography (CT) imaging was recorded on single-photon emission computed tomography imaging system (Olympus). Magnetic resonance (MR) imaging was recorded on a preclinical magnetic resonance solution system (MR solutions).
In vitro analysis of cathepsin K (CTSK) activation, selectivity, and sensitivity studies.
Probe CTSK-APPA, D-CTSK-APPA, or CTSK-APP (10 μM) was incubated with CTSK in MES buffer (50 mM, pH 6.0) containing 0.1% DMSO, 2 mM ethylene diamine tetraacetic acid (EDTA), 4 mM dithiothreitol (DTT) and 0.15% chondroitin sulfate (CS) at 37 °C for 1 h. After incubation at the indicated time, UV-Vis spectra, fluorescence spectra, fluorescence images, and PA images of the solutions were recorded. Probe CyP (10 μM) incubated with CTSK (200 ng/mL) for 1 h was further analyzed by HPLC. For selectivity study, CTSK-APPA (10 μM) in a 96-well plate was incubated with CTSK (100 ng/mL), CTSB (100 ng/mL), FAP-α (9×10-4 U/mL), Caspase-3 (100 ng/mL), APN (100 ng/mL), GGT (0.1 U/mL), ALP (0.1 U/mL), ACE (1×10-3 U/mL), and trypsin (10 U/L) at […] for 1 h. […] The limit of detection was determined from emission intensities according to the equation: 3δ/k, where δ represents the standard deviation of blank, and k represents the slope of the fitting plot of emission intensities. Fluorescence images were captured by using the IVIS Spectrum imaging system with excitation at 660 ± 10 nm and emission at 710 ± 10 nm. […]
Kinetic assay. […] Fluorescence intensities of solution were measured for quantification analyses by a microplate reader (BioTek, Synergy 2) with excitation at 690 nm and emission at 720 nm. The kinetic parameters were calculated according to the Michaelis-Menten equation shown below: V = Vmax×[S]/(Km + [S]), where V is initial velocity, and [S] is substrate concentration. […]

[2] = system: CTSK-overexpressing OCs on calf bone slice; assay: In vitro bone resorption imaging assay; type: cell-based, C57BL/6J mice; conditions: probe 5 μM, 37 °C, 2 h; Ex 660 nm, Em 710 nm; n = 3
Description: PS. RAW 264.7 cells and BMMs were maintained in an atmosphere of 5% CO2 and 95% humidified air at 37 °C. The medium was changed every day.
Cell cytotoxicity assay. MDA-MB-231/Luc and RAW 264.7 cells were seeded in 96-well plates (5×10^3 cells per well) for 24 h and then incubated with CTSK-APPA or CTSK-APP (5, 10, 20, 50 μM) or saline for 24 h. The medium was removed and cells were incubated with CCK-8 (0.5 mg/mL) for another 1 h. The absorbance of the mixture at 450 nm was measured by using a microplate reader. Cell viability was expressed by the ratio of the absorbance of the cells incubated with the probes to that of the cells incubated with culture medium only.
In vitro osteoclast differentiation. Bone marrow-derived macrophages were isolated from the femurs and tibias of 4-week-old C57BL/6J mice and cultured in a complete medium containing M-CSF (30 ng/mL) for 4 days. BMMs were harvested to the 24-well plates (1×10^4 per well) and cultured in the complete medium containing M-CSF (30 ng/mL) and RANKL (100 ng/mL) for another 4 days. The osteoclasts were fixed and stained by using acid phosphatase and a leukocyte kit according to the manufacturer’s procedures.
In vitro bone resorption imaging assay. […]
Fluorescence images were captured by using the IVIS Spectrum imaging system with excitation […]

Cbz‐Leu‐Arg‐OH [CTSK-APPA]
incubation time until absorption at 690 nm and fluorescence at 720 nm reach plateau ([1]; incubation with CTSK): ≈ 60 min
fluorescence on/off ratio at 720 nm ([1]; probe 10 μM + CTSK, MES buffer 50 mM pH 6.0, 0.1% DMSO, 37 °C, 1 h, Ex 690 nm, n = 3): ~20.9
enhancement of photoacoustic signal ([1]; probe 10 μM + CTSK, MES buffer pH 6.0, 37 °C, 1 h, irradiated at 700 nm, n = 3): 5.2 fold
NIR fluorescence of bone-resorption slice vs normal bone slices [2]: stronger NIR fluorescence signal
